# Test results reported in US9908895B2, “Tricyclic fused thiophene derivatives as JAK inhibitors” (Incyte Corporation, priority 2012, dated 2018).
# System: human JAK1
# Test: In vitro JAK kinase assay (HTRF), JAK1
# Assay type: biochemical
# Details: ratio of JAK2 IC50 to JAK1 IC50 at 1 mM ATP
# Method: Compounds herein were tested for inhibitory activity of JAK targets according to the following in vitro assay described in Park et al., Analytical Biochemistry 1999, 269, 94-104. The catalytic domains of human JAK1 (a.a. 837-1142), JAK2 (a.a. 828-1132) and JAK3 (a.a. 781-1124) were expressed using baculovirus in insect cells and purified. The catalytic activity of JAK1, JAK2 or JAK3 was assayed by measuring the phosphorylation of a biotinylated peptide. The phosphorylated peptide was detected by homogenous time resolved fluorescence (HTRF). IC50s of compounds were measured for each kinase in the 40 μL reactions that contain the enzyme, ATP and 500 nM peptide in 50 mM Tris (pH 7.8) buffer with 100 mM NaCl, 5 mM DTT, and 0.1 mg/mL (0.01%) BSA. For the 1 mM IC50 measurements, ATP concentration in the reactions was 1 mM. Reactions were carried out at room temperature for 1 hour and then stopped with 20 μL 45 mM EDTA, 300 nM SA-APC, 6 nM Eu-Py20 in assay buffer (Perkin Elmer, Boston, Mass.). Binding to the Europium labeled antibody took place for 40 minutes and HTRF signal was measured on a PHERA star plate reader (BMG, Cary, N.C.). The Example compounds were each tested in the Example A assay (see Table 1 for data for the compounds of the examples as tested by the assay of Example A at 1 mM ATP).
row,SMILES,JAK2/JAK1
1,CCc1nc2cnc3ccsc3c2n1[C@@H]1CC[C@@H](CC#N)[C@@H](O)C1 (mixture of isomers) [Example 35],>10
2,"N#CCC1CCC(CO)(n2cnc3cnc4ccsc4c32)CC1 (single isomer, unassigned) [72 (second peak), [4-(Hydroxymethyl)-4-(1H-imidazo[4,5-d]thieno[3,2-b]pyridin-1-yl)cyclohexyl]acetonitrile]",>5
3,"C[C@@H](O)c1nc2cnc3ccsc3c2n1[C@H]1CC[C@H](NCC(F)(F)F)CC1 [Example 4, (1R)-1-(1-{trans-4-[(2,2,2-Trifluoroethyl)amino]cyclohexyl}-1H-imidazo[4,5-d]thieno[3,2-b]pyridin-2-yl)ethanol]",>10
4,"C[C@@H](O)c1nc2cnc3ccsc3c2n1[C@H]1CC[C@H](CCS(C)(=O)=O)CC1 [Example 5, (1R)-1-(1-{trans-4-[2-(Methylsulfonyl)ethyl]cyclohexyl}-1H-imidazo[4,5-d]thieno[3,2-b]pyridin-2-yl)ethanol]",>10
5,"N#CC[C@H]1CC[C@H](n2c(CO)nc3cnc4ccsc4c32)CC1 [Example 17, {trans-4-[2-(Hydroxymethyl)-1H-imidazo[4,5-d]thieno[3,2-b]pyridin-1-yl]cyclohexyl}acetonitrile]",>10
6,"CS(=O)(=O)NCc1nc2cnc3ccsc3c2n1[C@H]1CC[C@H](CC#N)CC1 [Example 18, N-({1-[trans-4-(Cyanomethyl)cyclohexyl]-1H-imidazo[4,5-d]thieno[3,2-b]pyridin-2-yl}methyl)methanesulfonamide]",>10
7,"C[C@@H](O)c1nc2cnc3ccsc3c2n1[C@H]1CC[C@H](CC#N)OC1 [Example 20, ((2R,5S)-5-{2-[(1R)-1-Hydroxyethyl]-1H-imidazo[4,5-d]thieno[3,2-b]pyridin-1-yl}tetrahydro-2H-pyran-2-yl)acetonitrile]",>10
8,"C[C@@H](O)c1nc2cnc3ccsc3c2n1[C@H]1CC[C@@H](CC#N)OC1 [Example 21, ((2S,5S)-5-{2-[(1R)-1-Hydroxyethyl]-1H-imidazo[4,5-d]thieno[3,2-b]pyridin-1-yl}tetrahydro-2H-pyran-2-yl)acetonitrile]",>10
9,"CS(=O)(=O)NCc1nc2cnc3ccsc3c2n1[C@H]1CC2CCC1C2 (stereo partly drawn) [Example 22, N-((1-((2S)-Bicyclo[2.2.1]heptan-2-yl)-1H-imidazo[4,5-d]thieno[3,2-b]pyridin-2-yl)methyl)methanesulfonamide]",>4
10,"N#CC[C@H]1CC[C@H](n2/c(=N/C#N)[nH]c3cnc4ccsc4c32)CC1.O=C(O)C(F)(F)F [Example 25, {(2E)-1-[trans-4-(Cyanomethyl)cyclohexyl]-1,3-dihydro-2H-imidazo[4,5-d]thieno[3,2-b]pyridin-2-ylidene}cyanamide trifluoroacetate]",>6
11,"N#CC[C@H]1CC[C@H](n2c(C3CC3)nc3cnc4ccsc4c32)CC1 [Example 26, [trans-4-(2-Cyclopropyl-1H-imidazo[4,5-d]thieno[3,2-b]pyridin-1-yl)cyclohexyl]acetonitrile]",>10

# The remaining lines, values ahead:
row,JAK2/JAK1,SMILES
1,>10,"C[C@@H](O)c1nc2cnc3ccsc3c2n1C1CCC(O)(CC#N)CC1 (single isomer, unassigned) [24 (first peak)]"
2,>2,"C[C@@H](O)c1nc2cnc3ccsc3c2n1C1CCC(NCCC#N)CC1 (single isomer, unassigned) [30 (first peak)]"
3,>10,"C[C@@H](O)c1nc2cnc3ccsc3c2n1C1CCC(NCCC#N)CC1 (single isomer, unassigned) [30 (second peak)]"
4,>3,"C[C@@H](O)c1nc2cnc3ccsc3c2n1[C@H]1CCCOC1 [Example 1, (1R)-1-{1-[(3S)-Tetrahydro-2H-pyran-3-yl]-1H-imidazo[4,5-d]thieno[3,2-b]pyridin-2-yl}ethanol]"
5,>10,"C[C@@H](O)c1nc2cnc3ccsc3c2n1[C@H]1CC[C@H](CC#N)CC1 [Example 2, (trans-4-{2-[(1R)-1-Hydroxyethyl]-1H-imidazo[4,5-d]thieno[3,2-b]pyridin-1-yl}cyclohexyl)acetonitrile]"
6,>10,"C[C@@H](O)c1nc2cnc3ccsc3c2n1[C@H]1CC[C@H](O)CC1 [Example 3, trans-4-{2-[(1R)-1-Hydroxyethyl]-1H-imidazo[4,5-d]thieno[3,2-b]pyridin-1-yl}cyclohexanol]"
7,>6,"C[C@@H](O)c1nc2cnc3ccsc3c2n1[C@H]1CC[C@@H](n2cncn2)CC1 [Example 6, (1R)-1-{1-[cis-4-(1H-1,2,4-Triazol-1-yl)cyclohexyl]-1H-imidazo[4,5-d]thieno[3,2-b]pyridin-2-yl}ethanol]"
8,>10,"C[C@@H](O)c1nc2cnc3ccsc3c2n1[C@H]1CC[C@@H](C#N)CC1 [Example 7, cis-4-{2-[(1R)-1-Hydroxyethyl]-1H-imidazo[4,5-d]thieno[3,2-b]pyridin-1-yl}cyclohexanecarbonitrile]"
9,>10,"C[C@@H](O)c1nc2cnc3ccsc3c2n1[C@H]1CC[C@H](CCC#N)CC1 [Example 8, 3-(trans-4-{2-[(1R)-1-Hydroxyethyl]-1H-imidazo[4,5-d]thieno[3,2-b]pyridin-1-yl}cyclohexyl)propanenitrile]"
10,>10,"C[C@@H](O)c1nc2cnc3ccsc3c2n1[C@H]1CC[C@H](CC#N)CC1.Cl [Example 10, (trans-4-{2-[(1R)-1-Hydroxyethyl]-1H-imidazo[4,5-d]thieno[3,2-b]pyridin-1-yl}cyclohexyl)acetonitrile HCl salt]"
11,>10,"C[C@@H](O)c1nc2cnc3ccsc3c2n1[C@H]1CC[C@H](CO)CC1 [Example 11, (1R)-1-{1-[trans-4-(Hydroxymethyl)cyclohexyl]-1H-imidazo[4,5-d]thieno[3,2-b]pyridin-2-yl}ethanol]"
12,>10,"C[C@@H](O)c1nc2cnc3ccsc3c2n1[C@H]1CC[C@H](CF)CC1 [Example 12, (1R)-1-{1-[trans-4-(Fluoromethyl)cyclohexyl]-1H-imidazo[4,5-d]thieno[3,2-b]pyridin-2-yl}ethanol]"
13,>10,"C[C@@H](O)c1nc2cnc3ccsc3c2n1C1CCCCC1 [Example 13, (1R)-1-(1-Cyclohexyl-1H-imidazo[4,5-d]thieno[3,2-b]pyridin-2-yl)ethanol]"
14,>5,"CNS(=O)(=O)C[C@H]1CC[C@H](n2c([C@@H](C)O)nc3cnc4ccsc4c32)CC1 [Example 14, 1-(trans-4-{2-[(1R)-1-hydroxyethyl]-1H-imidazo[4,5-d]thieno[3,2-b]pyridin-1-yl}cyclohexyl)-N-methylmethanesulfonamide]"
15,>9,"C[C@@H](O)c1nc2cnc3ccsc3c2n1C1CCN(CC(F)(F)F)CC1 [Example 15, (1R)-1-{1-[1-(2,2,2-Trifluoroethyl)piperidin-4-yl]-1H-imidazo[4,5-d]thieno[3,2-b]pyridin-2-yl}ethanol]"
16,>10,"C[C@@H](O)c1nc2cnc3ccsc3c2n1C1CCN(CCC#N)CC1 [Example 16, 3-(4-{2-[(1R)-1-Hydroxyethyl]-1H-imidazo[4,5-d]thieno[3,2-b]pyridin-1-yl}piperidin-1-yl)propanenitrile]"
17,>10,"C[C@@H](O)c1nc2cnc3ccsc3c2n1[C@H]1CCC(CO)OC1 (stereo partly drawn) [Example 19, (1R)-1-{1-[(3S)-6-(Hydroxymethyl)tetrahydro-2H-pyran-3-yl]-1H-imidazo[4,5-d]thieno[3,2-b]pyridin-2-yl}ethanol]"
